Laboratory results: article PMC11174011, “In Vitro and Molecular Docking Evaluation of the Anticholinesterase and Antidiabetic Effects of Compounds from Terminalia macroptera Guill. & Perr. (Combretaceae)” (Molecules, 2024)
Where two headings read alike, the source gives them in different places.

Columns and labels:
[1] = molecular target: AChE (electric eel source) (Electrophorus electricus, UniProt O42275); assay: biochemical
[2] = molecular target: BChE (horse serum source) (Equus caballus, UniProt P81908); assay: biochemical
BChE (horse serum source), sequence (P81908 whole entry): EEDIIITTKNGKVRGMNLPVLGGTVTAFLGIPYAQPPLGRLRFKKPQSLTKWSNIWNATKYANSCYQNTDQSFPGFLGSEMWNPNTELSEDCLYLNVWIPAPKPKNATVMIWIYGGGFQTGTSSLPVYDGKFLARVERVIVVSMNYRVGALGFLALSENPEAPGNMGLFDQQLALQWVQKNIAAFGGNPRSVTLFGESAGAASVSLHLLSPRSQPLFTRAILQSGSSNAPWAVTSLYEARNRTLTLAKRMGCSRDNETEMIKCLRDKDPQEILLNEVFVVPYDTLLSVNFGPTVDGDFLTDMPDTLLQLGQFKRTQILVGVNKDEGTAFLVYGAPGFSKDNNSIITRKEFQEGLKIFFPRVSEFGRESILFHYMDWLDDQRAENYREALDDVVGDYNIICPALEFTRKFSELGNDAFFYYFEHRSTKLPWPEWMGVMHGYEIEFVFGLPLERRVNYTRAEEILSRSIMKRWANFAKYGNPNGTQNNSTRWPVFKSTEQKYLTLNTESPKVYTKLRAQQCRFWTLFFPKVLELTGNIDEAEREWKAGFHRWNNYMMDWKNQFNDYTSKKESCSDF
From the text: A standard spectrophotometric method was used to measure the anticholinesterase activity using both the butyrylcholinesterase (BChE) and acetylcholinesterase (AChE) enzymes, as described elsewhere but with slight modifications [59, 60]. […] The substrates used in the AChE and BChE assays were acetylthiocholine iodide and butyrylthiocholine chloride, respectively. DTNB (5,5′-Dithio-bis(2-nitrobenzoic) acid) was used for monitoring the cholinesterase activity.

[3] = molecular target: T1, α-amylase (porcine pancreas source) (Sus scrofa, UniProt P00690); assay: α-Amylase inhibitory assay (starch iodine protocol); type: biochemical
T1 construct: A porcine pancreas source of α-amylase (50 µL), 25 µL of the samples; from tissue; host or cells: porcine pancreas
T1 sequence (P00690 16-511): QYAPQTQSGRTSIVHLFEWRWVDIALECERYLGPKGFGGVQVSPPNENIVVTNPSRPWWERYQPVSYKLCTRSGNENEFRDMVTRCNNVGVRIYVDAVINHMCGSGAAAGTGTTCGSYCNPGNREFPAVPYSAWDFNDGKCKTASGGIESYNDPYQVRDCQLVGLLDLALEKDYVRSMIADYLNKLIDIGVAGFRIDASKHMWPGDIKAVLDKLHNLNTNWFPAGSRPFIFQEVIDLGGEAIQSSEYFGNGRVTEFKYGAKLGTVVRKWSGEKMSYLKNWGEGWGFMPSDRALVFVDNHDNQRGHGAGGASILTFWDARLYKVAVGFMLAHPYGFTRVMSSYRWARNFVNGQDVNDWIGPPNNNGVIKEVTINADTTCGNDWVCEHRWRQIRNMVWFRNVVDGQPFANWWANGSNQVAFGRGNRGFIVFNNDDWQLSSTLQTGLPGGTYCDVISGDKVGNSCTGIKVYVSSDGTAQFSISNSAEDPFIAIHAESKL
Method: In the α-amylase inhibition assay, the starch iodine protocol was used with few changes [62, 63]. A porcine pancreas source of α-amylase (50 µL), 25 µL of the samples, 6 mM NaCl, and phosphate buffer (pH 6.9) solution were mixed in a 96-well microplate and incubated at 37 °C for 10 min. Then, 50 µL of 0.05% starch solution was added to the reaction mixture and further incubated under the same conditions, after which Lugol (100 µL) and HCl (0.1 M, 25 µL) solutions were added to complete the reaction.

[4] = molecular target: α-glucosidase (fungal source from Saccharomyces cerevisiae); assay: α-Glucosidase inhibitory assay (PNPG); type: biochemical; design: IC50 ± SEM (α-glucosidase): unit not given beside the values; details: for IC50 ± SEM (α-glucosidase): Table 2, repeats Table 1, unit not given; for α-Glucosidase IC50: maximum concentration 200 µg/mL, means ± SEM of three measurements
[5] = evaluated up to 100 µg/mL, means ± SEM of three measurements, read-out: AChE IC50 (converted)
[6] = evaluated up to 100 µg/mL, means ± SEM of three measurements, read-out: BChE IC50 (converted)
[7] = Table 3, repeats Table 1, unit inferred, read-out: IC50 ± SEM (Butyrylcholinesterase)
[8] = Table 3, repeats Table 1, unit inferred, read-out: IC50 ± SEM (Acetylcholinesterase)
[9] = read-out: IC50 ± SEM (α-amylase), Table 2, repeats Table 1, unit inferred

AChE (electric eel source), sequence (O42275 24-633): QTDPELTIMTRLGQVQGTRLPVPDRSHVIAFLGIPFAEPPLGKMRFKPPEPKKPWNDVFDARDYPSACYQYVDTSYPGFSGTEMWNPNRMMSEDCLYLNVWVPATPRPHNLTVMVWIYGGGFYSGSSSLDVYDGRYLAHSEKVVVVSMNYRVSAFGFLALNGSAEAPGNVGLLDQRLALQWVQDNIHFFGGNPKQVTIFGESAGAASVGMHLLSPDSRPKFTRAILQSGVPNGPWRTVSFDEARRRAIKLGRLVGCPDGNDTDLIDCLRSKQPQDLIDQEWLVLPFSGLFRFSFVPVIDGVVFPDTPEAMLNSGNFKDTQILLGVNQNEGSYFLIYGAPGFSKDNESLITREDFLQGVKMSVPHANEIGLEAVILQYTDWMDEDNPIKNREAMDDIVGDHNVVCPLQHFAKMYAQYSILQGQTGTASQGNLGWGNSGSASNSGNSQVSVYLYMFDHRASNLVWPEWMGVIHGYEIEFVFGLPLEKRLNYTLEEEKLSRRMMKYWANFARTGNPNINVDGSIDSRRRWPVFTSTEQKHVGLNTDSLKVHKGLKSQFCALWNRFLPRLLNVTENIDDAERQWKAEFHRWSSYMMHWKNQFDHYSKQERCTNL

SMILES	IC50 [1, 5]	IC50 [2, 6]	IC50 [3]	IC50 ± SEM (α-glucosidase) [4]	α-Glucosidase IC50 [4]	IC50 [2, 7]	IC50 [1, 8]	IC50 [2]	IC50 ([2]; read-out: IC50 ± SEM (Butyrylcholinesterase), Table 3, repeats Table 1, unit inferred)	IC50 [3, 9]
COc1c(O)cc2c(=O)oc3c(OC)c(O)cc4c(=O)oc1c2c34 [Compound 1, 3,3′-di-O-methyl ellagic acid]	142 µM	153 µM	203 µM	74.18 ± 0.29	74.18 ± 0.29 µg/mL					
COc1cc2c(=O)oc3c(OC)c(O[C@@H]4OC[C@@H](O)[C@H](O)[C@H]4O)cc4c(=O)oc(c1OC)c2c34 [Compound 2, 3,3′,4′-tri-O-methyl ellagic acid-4-O-β-D-xylopyranoside]	129 µM	> 210 µM	216 µM	121.51 ± 0.65	121.51 ± 0.65 µg/mL	> 210 µM				
COc1cc2c(=O)oc3c(OC)c(O[C@@H]4O[C@H](CO)[C@@H](O)[C@H](O)[C@H]4O)cc4c(=O)oc(c1OC)c2c34 [Compound 3, 3,3′,4′-tri-O-methyl ellagic acid-4-O-β-D-glucopyranoside]	118 µM	149 µM	217 µM	137.51 ± 0.81	137.51 ± 0.81 µg/mL					
COc1c(O)cc2c(=O)oc3c(OC)c(O[C@@H]4O[C@H](CO)[C@@H](O)[C@H](O)[C@H]4O)cc4c(=O)oc1c2c34 [Compound 4, 3,3′-di-O-methyl ellagic acid-4-O-β-D-glucopyranoside]	129 µM	182 µM	185 µM	97.75 ± 0.49	97.75 ± 0.49 µg/mL					
CC1OC(Oc2c(-c3cc(O)c(O)c(O)c3)oc3cc(O)cc(O)c3c2=O)C(O)C(O)C1O (stereo not drawn) [Compound 5, myricetin-3-O-rhamnoside]	> 215 µM		140 µM	69.02 ± 0.65	69.02 ± 0.65 µg/mL		> 215 µM	> 215 µM	> 215 µM	
O=C(O)C1=C[C@@H](O)[C@@H](O)[C@H](O)C1 [Compound 6, shikimic acid]	317 µM		> 1150 µM	>200	>200 µg/mL			337 µM		> 1150 µM
CC1(C)CC[C@]2(C(=O)O)CC[C@]3(C)C(=CC[C@@H]4[C@@]5(C)C[C@@H](O)[C@H](O)[C@@](C)(CO)[C@@H]5CC[C@]43C)[C@@H]2[C@@H]1O [Compound 7, arjungenin]	106 µM	> 198 µM	369 µM	192.17 ± 0.78	192.17 ± 0.78 µg/mL	> 198 µM				
CC1(C)CC[C@]2(C(=O)O)CC[C@]3(C)C(=CC[C@@H]4[C@@]5(C)C[C@@H](O)[C@H](O)[C@@](C)(CO)[C@@H]5[C@H](O)C[C@]43C)[C@@H]2C1 [Compound 8, terminolic acid]	130 µM	> 198 µM	289 µM	155.84 ± 0.31	155.84 ± 0.31 µg/mL	> 198 µM				
CC1(C)CCC2(C(=O)OC3OC(CO)C(O)C(O)C3O)CCC3(C)C(=CCC4C5(C)CC(O)C(O)C(C)(C)C5CCC43C)C2C1O (stereo not drawn) [Compound 9, 24-deoxysericoside]	> 154 µM	> 154 µM	> 307 µM	>200	>200 µg/mL	> 154 µM	> 154 µM			> 307 µM
CC1(C)CC[C@]2(C(=O)O[C@@H]3O[C@H](CO)[C@@H](O)[C@H](O)[C@H]3O)CC[C@]3(C)C(=CC[C@@H]4[C@@]5(C)C[C@@H](O)[C@H](O)[C@@](C)(CO)[C@@H]5CC[C@]43C)[C@@H]2[C@@H]1O [Compound 10, arjunglucoside I]	148 µM	> 150 µM	> 300 µM	>200	>200 µg/mL	> 150 µM				> 300 µM
CC1(C)CC[C@]2(C(=O)O[C@@H]3O[C@H](CO)[C@@H](O)[C@H](O)[C@H]3O)CC[C@]3(C)C(=CC[C@@H]4[C@@]5(C)C[C@@H](O)[C@H](O)[C@@](C)(CO)[C@@H]5[C@H](O)C[C@]43C)[C@@H]2C1 [Compound 11, chebuloside II]	> 150 µM	> 150 µM	> 300 µM	>200	>200 µg/mL	> 150 µM	> 150 µM			> 300 µM
